Reference: patent publication US9555038B2, “Heterocycle-substituted tetracyclic compounds and methods of use thereof for the treatment of viral diseases” (Merck Sharp & Dohme Corp., priority 2013, dated 2017)
Read-outs that look alike come from different tables or passages of the source.

How the values were obtained:
HCV replicon 1A = experiment: Cell-based HCV Replicon Assay A, replicon 1A
Protocol: (§1) To measure cell-based anti-HCV activity of compounds of the present invention, two complimentary assays were employed using various replicons. In the first assay (“Replicon Assay A”), replicon cells were seeded at 2000 cells/well in 384-well 384-well flat bottom tissue culture treated clear bottom plate (Corning 3707) in the presence of the test compound. Various concentrations of test compound, typically in 10 serial dilutions, were added to the assay mixture, with the starting concentration ranging from 333.3 nM to […]. The final concentration of DMSO was 0.5%. Fetal bovine serum was 5%, in the assay media. Cells were harvested on day 3 by removing media and washing the cells with a suitable wash buffer. The cells are lysed with the addition of 1× Qiagen lysis buffer (Cat #1062731). The replicon RNA level was measured using real time PCR (TaqMan® EZ RT-PCR, Applied Biosystems 403028) with the following primers and probes: […]
(§2) Cyclophilin RNA was used as endogenous control and was amplified in the same reaction as NS5B (multiplex PCR). The real-time RT-PCR reactions were run on ABI PRISM 7900HT Sequence Detection System using the following program: 50° C. for 2 minutes, 60° C. for 30 minutes, 95° C. for 5 minutes, 40 cycles of 94° C. for 20 sec, 55° C. for 1 minutes.
(§3) The amount of HCV replicon RNA per cell is quantified using a linear regression curve for a known nanogram (ng) amount of HCV replicon total RNA. This is established by plotting the Cycle Threshold values (Ct) from the Neo probe and primer set versus the log (ng) for each HCV replicon total RNA standard. The amount of HCV RNA for each replicon sample is calculated by taking the sample's Ct value, minus the line intercept, divided by the slope of the line. Similarly, the amount of Cyclophilin mRNA per cell is also quantified using a linear regression curve for a known nanogram (ng) amount of HCV replicon total RNA. Again, this is established by plotting the Cycle Threshold values (Ct) from the Cyclophilin probe and primer set versus the log (ng) for each HCV replicon total RNA standard.
(§4) Data was obtained for various compounds of the present invention using the methods described in the Example above, and is presented in the table immediately below. Data for replicons 1A, 1AY93H and 2B were obtained using Replicon Assay A and data for replicons 1AQ30D and 1B were obtained using Replicon Assay B.

HCV replicon 1AY93H = experiment: Cell-based HCV Replicon Assay A, replicon 1AY93H
Protocol: as §1, §2, §3, §4

HCV replicon 2B = experiment: Cell-based HCV Replicon Assay A, replicon 2B
Protocol: as §1, §2, §3, §4

[1] = read-out: 1A Y93H IC50, replicon 1AY93H
[2] = Hepatitis C virus, read-out: 2B IC50 (nM), replicon 2B
[3] = Hepatitis C virus, read-out: 1A Y93H IC50 (nM), replicon 1AY93H

| Structure (SMILES) | IC50 (HCV replicon 1A) | IC50 (HCV replicon 1AY93H; [1]) | IC50 (HCV replicon 2B; read-out: 2B IC50, replicon 2B) | IC50 (HCV replicon 1A; Hepatitis C virus) | IC50 (HCV replicon 2B; [2]) | IC50 (HCV replicon 1AY93H; [3]) |
| --- | --- | --- | --- | --- | --- | --- |
| COC(=O)NC(C(=O)N1CCC[C@H]1c1ncc(-c2ccc3c(c2)cc2n3C(c3cnc(C(C)C)s3)Oc3cc(-c4cnc([C@@H]5CCCN5C(=O)[C@@H](NC(=O)OC)C(C)C)[nH]4)cc(F)c3-2)[nH]1)C1CCOC(C)(C)C1 (single isomer, unassigned) [Compound 63] | 0.0483 nM | 0.254 nM | 1.67 nM | – | – | – |
| COC(=O)NC(C(=O)N1[C@@H]2C[C@@H]2C[C@H]1c1ncc(-c2ccc3c(c2)cc2n3C(c3ncc(C4CC4)s3)Oc3cc(-c4cnc([C@@H]5CCCN5C(=O)[C@@H](NC(=O)OC)C(C)C)[nH]4)cc(F)c3-2)[nH]1)C1C[C@@H](C)O[C@@H](C)C1 (single isomer, unassigned) [Compound 64] | – | 0.159 nM | 0.268 nM | 0.0012 nM | – | – |
| COC(=O)NC(C(=O)N1[C@@H]2C[C@@H]2C[C@H]1c1ncc(-c2ccc3c(c2)cc2n3C(c3cnc(C(C)C)s3)Oc3cc(-c4cnc([C@@H]5CCCN5C(=O)[C@@H](NC(=O)OC)C(C)C)[nH]4)cc(F)c3-2)[nH]1)C1CCOC(C)(C)C1 (single isomer, unassigned) [Compound 68] | 0.0014 nM | 0.0996 nM | – | – | 0.253 nM | – |
| COC(=O)NC(C(=O)N1CCC[C@H]1c1ncc(-c2ccc3c(c2)cc2n3C(c3nc(C(F)(F)F)cs3)Oc3cc(-c4cnc([C@@H]5CCCN5C(=O)[C@@H](NC(=O)OC)C(C)C)[nH]4)cc(F)c3-2)[nH]1)C1C[C@@H](C)O[C@@H](C)C1 (single isomer, unassigned) [Compound 75] | – | 0.875 nM | 0.491 nM | 0.0022 nM | – | – |
| COC(=O)NC(C(=O)N1CCC[C@H]1c1ncc(-c2ccc3c(c2)cc2n3C(c3cnc(-c4ccc(F)cc4)s3)Oc3cc(-c4cnc([C@@H]5CCCN5C(=O)[C@@H](NC(=O)OC)C(C)C)[nH]4)cc(F)c3-2)[nH]1)C1C[C@@H](C)O[C@@H](C)C1 (single isomer, unassigned) [Compound 80] | – | 0.0504 nM | 0.047 nM | 0.0015 nM | – | – |
| CCc1ncc(C2Oc3cc(-c4cnc([C@@H]5CCCN5C(=O)[C@@H](NC(=O)OC)C(C)C)[nH]4)cc(F)c3-c3cc4cc(-c5cnc([C@@H]6CCCN6C(=O)[C@@H](NC(=O)OC)C(C)C)[nH]5)ccc4n32)s1 (single isomer, unassigned) [Compound 82] | 0.0023 nM | 1.58 nM | 1.1 nM | – | – | – |
| CCc1ncc(C2Oc3cc(-c4cnc([C@@H]5CCCN5C(=O)[C@@H](NC(=O)OC)C(C)C)[nH]4)cc(F)c3-c3cc4cc(-c5cnc([C@@H]6C[C@H]7C[C@H]7N6C(=O)[C@@H](CC(=O)OC)C(C)C)[nH]5)ccc4n32)s1 (single isomer, unassigned) [Compound 84] | 0.0037 nM | 0.0708 nM | 0.425 nM | – | – | – |
| CCCc1ncc(C2Oc3cc(-c4cnc([C@@H]5CCCN5C(=O)[C@@H](NC(=O)OC)C(C)C)[nH]4)cc(F)c3-c3cc4cc(-c5cnc([C@@H]6C[C@H]7C[C@H]7N6C(=O)[C@@H](NC(=O)OC)C(C)C)[nH]5)ccc4n32)s1 (single isomer, unassigned) [Compound 91] | 0.0021 nM | 0.0537 nM | 0.17 nM | – | – | – |
| COC(=O)N[C@H](C(=O)N1CCC[C@H]1c1ncc(-c2cc(F)c3c(c2)OC(c2cnc(-c4ccc(F)cc4F)s2)n2c-3cc3cc(-c4cnc([C@@H]5CCCN5C(=O)[C@@H](NC(=O)OC)C(C)C)[nH]4)ccc32)[nH]1)C(C)C (single isomer, unassigned) [Compound 99] | 0.0016 nM | 0.26 nM | 0.1 nM | – | – | – |
| COC(=O)NC(C(=O)N1[C@@H]2C[C@@H]2C[C@H]1c1ncc(-c2ccc3c(c2)c(F)c2n3C(c3cnc(C4CC4)s3)Oc3cc(-c4cnc([C@@H]5CCCN5C(=O)[C@@H](NC(=O)OC)C(C)C)[nH]4)cc(F)c3-2)[nH]1)C1CCOC(C)(C)C1 (single isomer, unassigned) [Compound 113] | 0.002 nM | 0.678 nM | 0.176 nM | – | – | – |
| CCCc1ncc(C2Oc3cc(-c4cnc([C@@H]5CCCN5C(=O)[C@@H](NC(=O)OC)C(C)C)[nH]4)cc(C)c3-c3cc4cc(-c5cnc([C@@H]6C[C@H]7C[C@H]7N6C(=O)[C@@H](NC(=O)OC)C(C)C)[nH]5)ccc4n32)s1 (single isomer, unassigned) [Compound 205] | – | 2.46 nM | 0.57 nM | 0.006 nM | – | – |
| COC(=O)N[C@H](C(=O)N1CCC[C@H]1c1ncc(-c2cc(C)c3c(c2)OC(c2cnc(C4CC4)s2)n2c-3cc3cc(-c4cnc([C@@H]5C[C@H]6C[C@H]6N5C(=O)[C@@H](NC(=O)OC)C(C)(C)F)[nH]4)ccc32)[nH]1)C(C)C (single isomer, unassigned) [Compound 209] | 0.003 nM | 0.197 nM | 0.155 nM | – | – | – |
| COC(=O)NC(C(=O)N1CCC[C@H]1c1ncc(-c2ccc3c(c2)cc2n3C(c3cnc(C4CC4)s3)Oc3cc(-c4cnc([C@@H]5CCCN5C(=O)[C@@H](NC(=O)OC)C(C)C)[nH]4)cc(C)c3-2)[nH]1)C1C[C@@H](C)O[C@@H](C)C1 (single isomer, unassigned) [Compound 215] | – | – | – | 0.0024 nM | 0.09 nM | 0.828 nM |
| COC(=O)NC(C(=O)N1CCC[C@H]1c1ncc(-c2ccc3c(c2)cc2n3C(c3cnc(C4CCC4)s3)Oc3cc(-c4cnc([C@@H]5CCCN5C(=O)[C@@H](NC(=O)OC)C(C)C)[nH]4)cc(C)c3-2)[nH]1)C1C[C@@H](C)O[C@@H](C)C1 (single isomer, unassigned) [Compound 218] | – | 0.12 nM | 0.035 nM | 0.002 nM | – | – |
| COC(=O)NC(C(=O)N1[C@@H]2C[C@@H]2C[C@H]1c1ncc(-c2ccc3c(c2)cc2n3C(c3cnc(C4CCC4)s3)Oc3cc(-c4cnc([C@@H]5CCCN5C(=O)[C@@H](NC(=O)OC)C(C)C)[nH]4)cc(C)c3-2)[nH]1)C(C)(C)F (single isomer, unassigned) [Compound 224] | – | – | – | 0.0027 nM | 0.204 nM | 0.462 nM |
| COC(=O)NC(C(=O)N1CCC[C@H]1c1ncc(-c2ccc3c(c2)cc2n3C(c3cnc(C4CC4)s3)Oc3cc(-c4cnc([C@@H]5CCCN5C(=O)[C@@H](NC(=O)OC)C(C)C)[nH]4)cc(F)c3-2)[nH]1)C1C[C@@H](C)O[C@@H](C)C1 (single isomer, unassigned) [Compound 306] | – | 0.244 nM | 0.145 nM | 0.003 nM | – | – |
| COC(=O)NC(C(=O)N1[C@@H]2C[C@@H]2C[C@H]1c1ncc(-c2ccc3c(c2)cc2n3C(c3cnc(C(C)(C)C)s3)Oc3cc(-c4cnc([C@@H]5CCCN5C(=O)[C@@H](NC(=O)OC)C(C)C)[nH]4)cc(F)c3-2)[nH]1)C(C)C (single isomer, unassigned) [Compound 323] | – | 0.0051 nM | 0.078 nM | 0.0032 nM | – | – |
| COC(=O)NC(C(=O)N1[C@@H]2C[C@@H]2C[C@H]1c1ncc(-c2ccc3c(c2)cc2n3C(c3cnc(C(C)(C)C)s3)Oc3cc(-c4cnc([C@@H]5CCCN5C(=O)[C@@H](NC(=O)OC)C(C)C)[nH]4)cc(F)c3-2)[nH]1)C(C)C (single isomer, unassigned) [Compound 324] | 0.002 nM | 0.263 nM | 1.67 nM | – | – | – |
| COC(=O)NC(C(=O)N1[C@@H]2C[C@@H]2C[C@H]1c1ncc(-c2ccc3c(c2)cc2n3C(c3cnc(C4CCCC4)s3)Oc3cc(-c4cnc([C@@H]5CCCN5C(=O)[C@@H](NC(=O)OC)C(C)C)[nH]4)cc(F)c3-2)[nH]1)C(C)(C)F (single isomer, unassigned) [Compound 327] | – | 0.002 nM | 0.011 nM | 0.0012 nM | – | – |
| COC(=O)NC(C(=O)N1[C@@H]2C[C@@H]2C[C@H]1c1ncc(-c2ccc3c(c2)cc2n3C(c3cnc(C4CCCC4)s3)Oc3cc(-c4cnc([C@@H]5CCCN5C(=O)[C@@H](NC(=O)OC)C(C)C)[nH]4)cc(F)c3-2)[nH]1)C(C)(C)F (single isomer, unassigned) [Compound 328] | 0.0015 nM | 0.0463 nM | 0.163 nM | – | – | – |
